Reference: patent US20260262643A1, “HERBICIDAL BENZOXAZINES” (FMC CORPORATION, priority 2022, published 2026)

Columns and labels:
[1] = tested on: galium; assay: Test C postemergence; format: in vivo, Galium aparine; conditions: 10 days
Procedure, shortened: (§1)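 Soil-applied (pre) and foliar (post, 1–2 leaf, 2–10 cm) sprays; surfactant-containing non-phytotoxic solvent vehicle; loam/sand substrate. Readout: visual % control at 10 d, greenhouse, versus untreated.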

[2] = tested on: wheat; assay: Test C preemergence; format: in vivo, Triticum aestivum; conditions: 0 to 100 scale (0 no effect, 100 complete control); for Plant response rating, Wheat: Preemergence, 500 g ai/ha, visual rating after 10 days; for Wheat plant response rating: Test C, preemergence, 125 g ai/ha
Procedure, shortened: as §1

[3] = tested on: ragweed; assay: Test C preemergence; format: in vivo, Ambrosia artemisiifolia; conditions: 0 to 100 scale (0 no effect, 100 complete control); for Plant response rating, Ragweed: Preemergence, 500 g ai/ha, visual rating after 10 days; for Ragweed plant response rating: Test C, preemergence, 125 g ai/ha
Procedure, shortened: as §1

[4] = tested on: green foxtail; assay: Test C preemergence; format: in vivo, Setaria viridis; conditions: 0 to 100 scale (0 no effect, 100 complete control); for Plant response rating, Foxtail, Green: Preemergence, 500 g ai/ha, visual rating after 10 days; for Foxtail, Green plant response rating: Test C, preemergence, 125 g ai/ha
Procedure, shortened: as §1

[5] = tested on: horseweed; assay: Test C postemergence; format: in vivo, Erigeron canadensis; conditions: 10 days
Procedure, shortened: as §1

[6] = tested on: kochia; assay: Test C postemergence; format: in vivo, Bassia scoparia; conditions: 10 days
Procedure, shortened: as §1

[7] = tested on: green foxtail; assay: Test C postemergence; format: in vivo, Setaria viridis; conditions: 10 days
Procedure, shortened: as §1

[8] = tested on: oat, wild; assay: Test C preemergence; format: in vivo, Avena fatua; conditions: 0 to 100 scale (0 no effect, 100 complete control); for Plant response rating, Oat, Wild: Preemergence, 500 g ai/ha, visual rating after 10 days; for Oat, Wild plant response rating: Test C, preemergence, 125 g ai/ha
Procedure, shortened: as §1

[9] = tested on: corn; assay: Test C preemergence; format: in vivo, Zea mays; conditions: 0 to 100 scale (0 no effect, 100 complete control); for Plant response rating, Corn: Preemergence, 500 g ai/ha, visual rating after 10 days; for Corn plant response rating: Test C, preemergence, 125 g ai/ha
Procedure, shortened: as §1

[10] = tested on: soybean; assay: Test C preemergence; format: in vivo, Glycine max; conditions: 0 to 100 scale (0 no effect, 100 complete control); for Plant response rating, Soybean: Preemergence, 500 g ai/ha, visual rating after 10 days; for Soybean plant response rating: Test C, preemergence, 125 g ai/ha
Procedure, shortened: as §1

[11] = tested on: soybean; assay: Test C postemergence; format: in vivo, Glycine max; conditions: 10 days
Procedure, shortened: as §1

[12] = tested on: ragweed; assay: Test C postemergence; format: in vivo, Ambrosia artemisiifolia; conditions: 10 days
Procedure, shortened: as §1

[13] = tested on: pigweed, palmer; assay: Test C postemergence; format: in vivo, Amaranthus palmeri; conditions: 10 days
Procedure, shortened: as §1

[14] = tested on: kochia; assay: Test C preemergence; format: in vivo, Bassia scoparia; conditions: 0 to 100 scale (0 no effect, 100 complete control); for Plant response rating, Kochia: Preemergence, 500 g ai/ha, visual rating after 10 days; for Kochia plant response rating: Test C, preemergence, 125 g ai/ha
Procedure, shortened: as §1

[15] = tested on: blackgrass; assay: Test C postemergence; format: in vivo, Alopecurus myosuroides; conditions: 10 days
Procedure, shortened: as §1

[16] = tested on: barnyardgrass; assay: Test D flooded paddy test; format: in vivo, Echinochloa crus-galli; conditions: 250 g ai/ha, applied to paddy water, visual rating after 13 to 14 days, scale 0 to 100 (0 no effect, 100 complete control)
Procedure, shortened: (§2)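 2-leaf plants; flood 3 cm above soil; compound dosed into paddy water; greenhouse 13–14 d; visual rating vs controls, 0–100 (100 = complete control); dash = not tested.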

[17] = tested on: corn; assay: Test C postemergence; format: in vivo, Zea mays; conditions: 10 days
Procedure, shortened: as §1

[18] = tested on: wheat; assay: Test C postemergence; format: in vivo, Triticum aestivum; conditions: 10 days
Procedure, shortened: as §1

[19] = tested on: ryegrass, Italian; assay: Test C postemergence; format: in vivo, Lolium multiflorum; conditions: 10 days
Procedure, shortened: as §1

[20] = tested on: blackgrass; assay: Test C preemergence; format: in vivo, Alopecurus myosuroides; conditions: 0 to 100 scale (0 no effect, 100 complete control); for Plant response rating, Blackgrass: Preemergence, 500 g ai/ha, visual rating after 10 days; for Blackgrass plant response rating: Test C, preemergence, 125 g ai/ha
Procedure, shortened: as §1

[21] = tested on: rice; assay: Test D flooded paddy test; format: in vivo, Oryza sativa; conditions: 250 g ai/ha, applied to paddy water, visual rating after 13 to 14 days, scale 0 to 100 (0 no effect, 100 complete control)
Procedure, shortened: as §2

[22] = tested on: sedge, umbrella; assay: Test D flooded paddy test; format: in vivo, Cyperus difformis; conditions: 250 g ai/ha, applied to paddy water, visual rating after 13 to 14 days, scale 0 to 100 (0 no effect, 100 complete control)
Procedure, shortened: as §2

[23] = tested on: ryegrass, Italian; assay: Test C preemergence; format: in vivo, Lolium multiflorum; conditions: 0 to 100 scale (0 no effect, 100 complete control); for Plant response rating, Ryegrass, Italian: Preemergence, 500 g ai/ha, visual rating after 10 days; for Ryegrass, Italian plant response rating: Test C, preemergence, 125 g ai/ha
Procedure, shortened: as §1

[24] = tested on: ducksalad; assay: Test D flooded paddy test; format: in vivo, Heteranthera limosa; conditions: 250 g ai/ha, applied to paddy water, visual rating after 13 to 14 days, scale 0 to 100 (0 no effect, 100 complete control)
Procedure, shortened: as §2

[25] = tested on: barnyardgrass; assay: Test C postemergence; format: in vivo, Echinochloa crusgalli; conditions: 10 days
Procedure, shortened: as §1

[26] = tested on: barnyardgrass; assay: Test C preemergence; format: in vivo, Echinochloa crusgalli; conditions: 0 to 100 scale (0 no effect, 100 complete control); for Plant response rating, Barnyardgrass: Preemergence, 500 g ai/ha, visual rating after 10 days; for Barnyardgrass plant response rating: Test C, preemergence, 125 g ai/ha
Procedure, shortened: as §1

[27] = tested on: oat, wild; assay: Test C postemergence; format: in vivo, Avena fatua; conditions: 10 days
Procedure, shortened: as §1

[28] = tested on: pigweed, palmer; assay: Test C preemergence; format: in vivo, Amaranthus palmeri; conditions: 0 to 100 scale (0 no effect, 100 complete control); for Plant response rating, Pigweed, Palmer: Preemergence, 500 g ai/ha, visual rating after 10 days; for Pigweed, Palmer plant response rating: Test C, preemergence, 125 g ai/ha
Procedure, shortened: as §1

[29] = 125 g ai/ha, postemergence, 0 to 100 scale, 0 no effect, 100 complete control
[30] = Postemergence, 500 g ai/ha, visual 0 to 100 scale (0 no effect, 100 complete control)

In the case of `CC(C)n1cnc(-c2cccc(C(=O)N3C[C@H](C)Oc4c(Cl)cccc43)c2)n1` [Compound 172], the “Plant response rating, Galium” value [1, 29] is reported as 0, the “Plant response rating, Galium” value [1, 30] is reported as 0 and the “Plant response rating, Wheat” value [2] is reported as 0. For the same compound, the “Wheat plant response rating” value [2] was 0, the “Plant response rating, Ragweed” value [3] was 0 and the “Ragweed plant response rating” value [3] was 0. The “Plant response rating, Foxtail, Green” value [4] was 0, the “Foxtail, Green plant response rating” value [4] was 0 and the “Plant response rating, Horseweed” value [5, 29] was 0. For the same compound, the “Plant response rating, Horseweed” value [5, 30] was 0, the “Plant response rating, Kochia” value [6, 29] was 0 and the “Plant response rating, Kochia” value [6, 30] was 30. For the same compound, the “Plant response rating, Foxtail, Green” value [7, 29] was 0, the “Plant response rating, Foxtail, Green” value [7, 30] was 0 and the “Plant response rating, Oat, Wild” value [8] was 0. For the same compound, the “Oat, Wild plant response rating” value [8] was 0, the “Plant response rating, Corn” value [9] was 0 and the “Corn plant response rating” value [9] was 0. The “Plant response rating, Soybean” value [10] was 0, the “Soybean plant response rating” value [10] was 0 and the “Plant response rating, Soybean” value [11, 29] was 0. For the same compound, the “Plant response rating, Soybean” value [11, 30] was 0, the “Plant response rating, Ragweed” value [12, 29] was 0 and the “Plant response rating, Ragweed” value [12, 30] was 0. The “Plant response rating, Pigweed, Palmer” value [13, 29] was 0, the “Plant response rating, Pigweed, Palmer” value [13, 30] was 0 and the “Plant response rating, Kochia” value [14] was 0. The “Kochia plant response rating” value [14] was 0, the “Plant response rating, Blackgrass” value [15, 29] was 0 and the “Plant response rating, Blackgrass” value [15, 30] was 0. For the same compound, the “Plant response rating, Barnyardgrass (Flood)” value [16] was 0, the “Plant response rating, Corn” value [17, 29] was 0 and the “Plant response rating, Corn” value [17, 30] was 0. The “Plant response rating, Wheat” value [18, 29] was 0, the “Plant response rating, Wheat” value [18, 30] was 0 and the “Plant response rating, Ryegrass, Italian” value [19, 29] was 0. The “Plant response rating, Ryegrass, Italian” value [19, 30] was 0, the “Plant response rating, Blackgrass” value [20] was 0 and the “Blackgrass plant response rating” value [20] was 0. For the same compound, the “Plant response rating, Rice (Flood)” value [21] was 0, the “Plant response rating, Sedge, Umbrella (Flood)” value [22] was 0 and the “Plant response rating, Ryegrass, Italian” value [23] was 20. For the same compound, the “Ryegrass, Italian plant response rating” value [23] was 0, the “Plant response rating, Ducksalad (Flood)” value [24] was 0 and the “Plant response rating, Barnyardgrass” value [25, 29] was 0. For the same compound, the “Plant response rating, Barnyardgrass” value [25, 30] was 0, the “Plant response rating, Barnyardgrass” value [26] was 0 and the “Barnyardgrass plant response rating” value [26] was 0. For the same compound, the “Plant response rating, Oat, Wild” value [27, 29] was 0, the “Plant response rating, Oat, Wild” value [27, 30] was 0 and the “Plant response rating, Pigweed, Palmer” value [28] was 0. For the same compound, the “Pigweed, Palmer plant response rating” value [28] was 0.

`CCn1cnc(-c2cccc(C(=O)N3C[C@H](C)Oc4c(Cl)cccc43)c2)n1` [Compound 173] was tested, and the “Plant response rating, Galium” value [1, 29] was 20, the “Plant response rating, Galium” value [1, 30] was 50 and the “Plant response rating, Wheat” value [2] was 0. The “Wheat plant response rating” value [2] was 0, the “Plant response rating, Ragweed” value [3] was 60 and the “Ragweed plant response rating” value [3] was 30. For the same compound, the “Plant response rating, Foxtail, Green” value [4] was 0, the “Foxtail, Green plant response rating” value [4] was 0 and the “Plant response rating, Horseweed” value [5, 29] was 10. For the same compound, the “Plant response rating, Horseweed” value [5, 30] was 10, the “Plant response rating, Kochia” value [6, 29] was 0 and the “Plant response rating, Kochia” value [6, 30] was 30. The “Plant response rating, Foxtail, Green” value [7, 29] was 0, the “Plant response rating, Foxtail, Green” value [7, 30] was 40 and the “Plant response rating, Oat, Wild” value [8] was 0. For the same compound, the “Oat, Wild plant response rating” value [8] was 0, the “Plant response rating, Corn” value [9] was 0 and the “Corn plant response rating” value [9] was 0. The “Plant response rating, Soybean” value [10] was 0, the “Soybean plant response rating” value [10] was 0 and the “Plant response rating, Soybean” value [11, 29] was 0. The “Plant response rating, Soybean” value [11, 30] was 30, the “Plant response rating, Ragweed” value [12, 29] was 0 and the “Plant response rating, Ragweed” value [12, 30] was 30. The “Plant response rating, Pigweed, Palmer” value [13, 29] was 0, the “Plant response rating, Pigweed, Palmer” value [13, 30] was 20 and the “Plant response rating, Kochia” value [14] was 0. The “Kochia plant response rating” value [14] was 0, the “Plant response rating, Blackgrass” value [15, 29] was 0 and the “Plant response rating, Blackgrass” value [15, 30] was 0. The “Plant response rating, Barnyardgrass (Flood)” value [16] was 0, the “Plant response rating, Corn” value [17, 29] was 0 and the “Plant response rating, Corn” value [17, 30] was 0. For the same compound, the “Plant response rating, Wheat” value [18, 29] was 0, the “Plant response rating, Wheat” value [18, 30] was 0 and the “Plant response rating, Ryegrass, Italian” value [19, 29] was 0. For the same compound, the “Plant response rating, Ryegrass, Italian” value [19, 30] was 0, the “Plant response rating, Blackgrass” value [20] was 0 and the “Blackgrass plant response rating” value [20] was 0. For the same compound, the “Plant response rating, Rice (Flood)” value [21] was 0, the “Plant response rating, Sedge, Umbrella (Flood)” value [22] was 0 and the “Plant response rating, Ryegrass, Italian” value [23] was 50. The “Ryegrass, Italian plant response rating” value [23] was 20, the “Plant response rating, Ducksalad (Flood)” value [24] was 0 and the “Plant response rating, Barnyardgrass” value [25, 29] was 10. For the same compound, the “Plant response rating, Barnyardgrass” value [25, 30] was 10, the “Plant response rating, Barnyardgrass” value [26] was 0 and the “Barnyardgrass plant response rating” value [26] was 0. For the same compound, the “Plant response rating, Oat, Wild” value [27, 29] was 0, the “Plant response rating, Oat, Wild” value [27, 30] was 0 and the “Plant response rating, Pigweed, Palmer” value [28] was 0. The “Pigweed, Palmer plant response rating” value [28] was 0.
